pEC50, pIC50: −log10 of the molar value. Calls of active or inactive are those of the source. No cut-off for these calls is given here.
Key:
SH-SY5Y [1] = assay: Cytoprotective activity against p-tau-induced toxicity in human SH-SY5Y cells assessed as reduction in cell viability at 8 uM incubated for 12 hrs by CCK-8 assay relative to control; type: functional, cell-based
SH-SY5Y [2] = assay: Cytoprotective activity against p-tau-induced toxicity in human SH-SY5Y cells assessed as reduction in cell viability at 0.3 uM incubated for 12 hrs by CCK-8 assay; type: functional, cell-based
SH-SY5Y [3] = assay: Cytoprotective activity against p-tau-induced toxicity in human SH-SY5Y cells assessed as cell death at 8 uM incubated for 12 hrs by CCK-8 assay; type: functional, cell-based
SH-SY5Y [4] = assay: Protective activity against p-tau induced ER-stress associated apoptosis in human SH-SY5Y cells assessed as reduction in ATF4 mRNA expression by qRT-PCR analysis; type: functional, cell-based
SH-SY5Y [5] = assay: Protective activity against p-tau induced ER-stress associated apoptosis in human SH-SY5Y cells assessed as reduction in CHOP mRNA expression by qRT-PCR analysis; type: functional, cell-based
SH-SY5Y [6] = assay: Protective activity against p-tau induced ER-stress associated apoptosis in human SH-SY5Y cells assessed as reduction in GADD34 mRNA expression by qRT-PCR analysis; type: functional, cell-based
SH-SY5Y [7] = assay: Protective activity against p-tau induced ER-stress associated apoptosis in human SH-SY5Y cells assessed as reduction in TRB3 mRNA expression by qRT-PCR analysis; type: functional, cell-based
SH-SY5Y [8] = assay: Antiinflammatory activity against p-tau-induced human SH-SY5Y cells assessed as reduction in IL1beta mRNA expression at 5 uM by qRT-PCR analysis; type: functional, cell-based
SH-SY5Y [9] = assay: Antiinflammatory activity against p-tau-induced human SH-SY5Y cells assessed as reduction in TNFalpha mRNA expression at 5 uM by qRT-PCR analysis; type: functional, cell-based
SH-SY5Y [10] = assay: Antiinflammatory activity against p-tau-induced human SH-SY5Y cells assessed as reduction in IRF3 mRNA expression at 5 uM by qRT-PCR analysis; type: functional, cell-based
SH-SY5Y [11] = assay: Cytoprotective activity against p-tau-induced toxicity in human SH-SY5Y cells assessed as cell viability incubated for 12 hrs by CCK-8 assay; type: functional, cell-based
SH-SY5Y [12] = assay: Cytoprotective activity against p-tau-induced toxicity in human SH-SY5Y cells incubated for 24 hrs by TEM analysis; type: functional, cell-based
SH-SY5Y [13] = assay: Cytoprotective activity against p-tau-induced toxicity in human SH-SY5Y cells assessed as reduction in cell viability at 8 uM incubated for 12 hrs by CCK-8 assay; type: functional, cell-based
SH-SY5Y [14] = assay: Protection against p-tau-induced morphological changes in human SH-SY5Y cells assessed as change in cell density at 5 uM incubated for 24 hrs by contrast microscopic analysis; type: functional, cell-based
SH-SY5Y [15] = assay: Protection against p-tau-induced morphological changes in human SH-SY5Y cells assessed as change in cell morphology at 5 uM incubated for 24 hrs by contrast microscopic analysis; type: functional, cell-based
[16] = molecular target: Microtubule-associated protein tau (Homo sapiens, UniProt P10636); assay: Inhibition of BLI biosensor-immobilized heparin binding to p-tau hyperphosphorylation (unknown origin) by Biolayer interferometry analysis
Microtubule-associated protein tau, sequence (P10636 whole entry): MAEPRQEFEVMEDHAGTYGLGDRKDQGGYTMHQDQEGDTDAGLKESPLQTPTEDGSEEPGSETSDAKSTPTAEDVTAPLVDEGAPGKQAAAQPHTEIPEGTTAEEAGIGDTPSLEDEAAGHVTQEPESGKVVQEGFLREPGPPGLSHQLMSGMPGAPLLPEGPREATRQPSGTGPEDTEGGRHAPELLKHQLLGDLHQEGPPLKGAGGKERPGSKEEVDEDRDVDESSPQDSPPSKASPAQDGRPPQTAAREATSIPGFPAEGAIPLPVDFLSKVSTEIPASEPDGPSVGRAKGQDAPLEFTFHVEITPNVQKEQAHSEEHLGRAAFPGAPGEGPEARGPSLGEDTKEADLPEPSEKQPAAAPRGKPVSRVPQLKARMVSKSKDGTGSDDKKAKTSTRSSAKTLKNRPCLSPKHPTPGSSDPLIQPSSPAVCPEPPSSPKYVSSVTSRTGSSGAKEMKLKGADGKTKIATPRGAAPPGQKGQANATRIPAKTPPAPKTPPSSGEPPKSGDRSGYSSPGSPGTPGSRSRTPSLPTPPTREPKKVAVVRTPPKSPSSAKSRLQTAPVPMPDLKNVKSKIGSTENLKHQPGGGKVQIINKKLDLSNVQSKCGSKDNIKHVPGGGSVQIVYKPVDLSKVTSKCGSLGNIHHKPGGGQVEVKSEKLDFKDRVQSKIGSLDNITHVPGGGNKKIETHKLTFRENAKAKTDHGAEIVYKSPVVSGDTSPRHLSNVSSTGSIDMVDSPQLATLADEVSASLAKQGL

Platelet factor 4 = molecular target: T1, Platelet factor 4 (Homo sapiens, UniProt P02776); assay: Binding affinity to human recombinant PF4 by Biolayer interferometry analysis
T1 sequence (P02776 whole entry): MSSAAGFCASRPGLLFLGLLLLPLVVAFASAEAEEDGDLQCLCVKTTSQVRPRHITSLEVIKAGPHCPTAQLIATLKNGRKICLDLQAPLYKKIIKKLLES

SH-SY5Y [17] = assay: Protective activity against p-tau induced ER-stress in human SH-SY5Y cells assessed as reduction spliced Xbp1 mRNA expression at 5 uM by qRT-PCR analysis; type: functional, cell-based
SH-SY5Y [18] = assay: Protective activity against p-tau induced ER-stress in human SH-SY5Y cells assessed as reduction Bip mRNA expression at 5 uM by qRT-PCR analysis; type: functional, cell-based
SH-SY5Y [19] = assay: Protective activity against p-tau induced ER-stress in human SH-SY5Y cells assessed as reduction ERdj4 mRNA expression at 5 uM by qRT-PCR analysis; type: functional, cell-based
SH-SY5Y [20] = assay: Protective activity against p-tau induced UPR response in human SH-SY5Y cells assessed as reduction spliced Xbp1 mRNA expression at 5 uM by qRT-PCR analysis; type: functional, cell-based
SH-SY5Y [21] = assay: Protective activity against p-tau induced UPR response in human SH-SY5Y cells assessed as reduction Bip mRNA expression at 5 uM by qRT-PCR analysis; type: functional, cell-based
SH-SY5Y [22] = assay: Protective activity against p-tau induced UPR response in human SH-SY5Y cells assessed as reduction ERdj4 mRNA expression at 5 uM by qRT-PCR analysis; type: functional, cell-based
SH-SY5Y [23] = assay: Protective activity against tunicamycin induced ER-stress in human SH-SY5Y cells assessed as reduction Xbp1s mRNA expression at 5 uM incubated for 24 hrs by qRT-PCR analysis; type: functional, cell-based
SH-SY5Y [24] = assay: Protective activity against tunicamycin induced ER-stress in human SH-SY5Y cells assessed as reduction P58ipk mRNA expression at 5 uM incubated for 24 hrs by qRT-PCR analysis; type: functional, cell-based
SH-SY5Y [25] = assay: Protective activity against tunicamycin induced ER-stress in human SH-SY5Y cells assessed as reduction ATF4 mRNA expression at 5 uM incubated for 24 hrs by qRT-PCR analysis; type: functional, cell-based
SH-SY5Y [26] = assay: Protective activity against thapsigargin induced ER-stress in human SH-SY5Y cells assessed as reduction Xbp1s mRNA expression at 5 uM incubated for 24 hrs by qRT-PCR analysis; type: functional, cell-based
SH-SY5Y [27] = assay: Protective activity against thapsigargin induced ER-stress in human SH-SY5Y cells assessed as reduction P58ipk mRNA expression at 5 uM incubated for 24 hrs by qRT-PCR analysis; type: functional, cell-based
SH-SY5Y [28] = assay: Protective activity against thapsigargin induced ER-stress in human SH-SY5Y cells assessed as reduction ATF4 mRNA expression at 5 uM incubated for 24 hrs by qRT-PCR analysis; type: functional, cell-based

SMILES	Activity (SH-SY5Y [3])	Activity (SH-SY5Y [4])	Activity (SH-SY5Y [5])	Activity (SH-SY5Y [6])	Activity (SH-SY5Y [7])	Activity (SH-SY5Y [8])	Activity (SH-SY5Y [9])	Activity (SH-SY5Y [10])	pEC50 (SH-SY5Y [11])	Activity (SH-SY5Y [12])	other results
COC(=O)[C@]12CCC(C)(C)C[C@H]1C1=CCC3[C@@]4(C)CC[C@H](O)C(C)(C)C4CC[C@@]3(C)C1(C)CC2 (some centres undefined)	–	–	–	–	–	–	–	–	–	–	Activity (SH-SY5Y [1]): No effect
O=C(O)[C@H]1O[C@@H](O[C@H]2[C@H](O)[C@@H](NS(=O)(=O)O)[C@H](OCCNS(=O)(=O)O)O[C@@H]2COS(=O)(=O)O)[C@H](O)[C@@H](O)[C@@H]1O[C@H]1O[C@H](COS(=O)(=O)O)[C@@H](O)[C@H](O)[C@H]1NS(=O)(=O)O	inactive	inactive	inactive	inactive	inactive	inactive	inactive	inactive	–	–	Activity (SH-SY5Y [2]): Moderate_effect
CN1CCc2cccc3c2[C@H]1Cc1ccc(O)c(O)c1-3 [APOMORPHINE]	–	–	–	–	–	–	–	–	5.54	Active	–
COC(=O)[C@]12CCC(C)(C)C[C@H]1C1=CCC3[C@@]4(C)CC[C@H](O[C@@H]5O[C@H](COS(=O)(=O)O)[C@@H](O[C@@H]6O[C@H](C(=O)O)[C@@H](O[C@H]7O[C@H](COS(=O)(=O)O)[C@@H](O)[C@H](O)[C@H]7NS(=O)(=O)O)[C@H](O)[C@H]6O)[C@H](O)[C@H]5NS(=O)(=O)O)C(C)(C)C4CC[C@@]3(C)C1(C)CC2 (some centres undefined)	inactive	Active	Active	Active	Active	Active	Active	Active	5.57	Active	Activity (SH-SY5Y [13]): Active; Activity (SH-SY5Y [14]): Active; Activity (SH-SY5Y [15]): Active; pIC50 [16]: 4.54; pIC50 (Platelet factor 4): 4.66; Activity (SH-SY5Y [17]): Active; Activity (SH-SY5Y [18]): Active; Activity (SH-SY5Y [19]): Active; Activity (SH-SY5Y [20]): Active; Activity (SH-SY5Y [21]): Active; Activity (SH-SY5Y [22]): Active; Activity (SH-SY5Y [23]): inactive; Activity (SH-SY5Y [24]): inactive; Activity (SH-SY5Y [25]): inactive; Activity (SH-SY5Y [26]): inactive; Activity (SH-SY5Y [27]): inactive; Activity (SH-SY5Y [28]): inactive

— ChEMBL document CHEMBL6121045, “Effects of Heparan Sulfate Trisaccharide Containing Oleanolic Acid in Attenuating Hyperphosphorylated Tau-Induced Cell Dysfunction Associated with Alzheimer's Disease” (J Med Chem, 2025)
